According to BindingDB's records for doi:10.1074/jbc.M113.529529 (The University of Tokyo, 2014):

Experiments:
Experiment in all cases: β-Gal Inhibitory Assay
Details in all cases: pH 4.5; 37 °C
[1] = target: T1, Beta-galactosidase [24-677,I51T] (Human, UniProt P16278, I51T)
T1 construct: 24-677
Protocol: (§1) β-Gal activity was measured by using 4-methylumbelliferyll-β-D-galactopyranoside in buffer B (0.15 M sodium citrate, pH 4.5, and 0.2 M NaCl) as a substrate, and incubating at 37 °C for 6 min.

[2] = target: T2, Beta-galactosidase [24-677,R201C] (Human, UniProt P16278, R201C)
T2 construct: 24-677
Protocol: as §1

[3] = target: T3, Beta-galactosidase [24-677] (Human, UniProt P16278)
T3 construct: 24-677
T3 sequence (P16278 whole entry): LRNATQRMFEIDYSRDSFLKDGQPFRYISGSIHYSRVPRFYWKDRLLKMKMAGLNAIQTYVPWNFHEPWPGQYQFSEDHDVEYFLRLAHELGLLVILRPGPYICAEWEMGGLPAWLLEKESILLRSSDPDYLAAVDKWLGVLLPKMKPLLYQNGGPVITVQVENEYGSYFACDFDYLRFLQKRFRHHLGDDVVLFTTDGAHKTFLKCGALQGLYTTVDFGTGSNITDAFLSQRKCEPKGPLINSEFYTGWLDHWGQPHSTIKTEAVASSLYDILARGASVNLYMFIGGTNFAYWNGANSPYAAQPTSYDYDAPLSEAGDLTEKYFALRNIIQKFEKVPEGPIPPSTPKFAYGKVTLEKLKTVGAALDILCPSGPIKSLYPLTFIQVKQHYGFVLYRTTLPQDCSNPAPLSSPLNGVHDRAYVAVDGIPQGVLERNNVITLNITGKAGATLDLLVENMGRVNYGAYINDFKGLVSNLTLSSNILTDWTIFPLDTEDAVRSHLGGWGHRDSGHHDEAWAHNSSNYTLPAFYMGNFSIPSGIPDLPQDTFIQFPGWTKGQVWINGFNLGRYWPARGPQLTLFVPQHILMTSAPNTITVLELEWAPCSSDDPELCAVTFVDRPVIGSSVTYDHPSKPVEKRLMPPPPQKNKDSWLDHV
Protocol: as §1

Ki [1] [µM] | Ki [2] [µM] | Ki [3] [µM] | SMILES
320 | 320 | 253 | CCCC/N=C1/SCC2[C@H](O)[C@H](O)C(O)[C@@H](O)N12 (stereo partly drawn) [5N,6S-(N'-butyliminomethylidene)-6-thiogalactonojirimycin]
68.8 | 53.3 | 68.3 | CCCC/N=C1\SC[C@@H]2[C@H](O)[C@H](O)[C@@H](O)CN12 [5N,6S-(N'-butyliminomethylidene)-6-thio-1-deoxygalactonojirimycin]

The next lines start with the compound.

SMILES | Ki [1] [µM] | Ki [2] [µM] | Ki [3] [µM]
OC[C@H]1OC(O)[C@H](O)[C@@H](O)[C@H]1O (stereo not given in full) [Galactose] | 4910 | 5610 | 4140
CCCCNC(=S)N1CC(O)[C@@H](O)[C@@H](O)C1CO (stereo not given in full) [N-(N'-butylthiocarbamoyl)-1-deoxygalactonojirimycin] | 329 | 388 | 373
CCCCCCCCN[C@H]1C=C(CO)[C@@H](O)[C@H](O)[C@H]1O [NOEV] | 1.2 | 0.94 | 1.1
